The values below come from patent US8426437B2, “Pyrroloquinoline derivatives and their use as protein kinases inhibitors” (Pierre Fabre Medicament, priority 2005, dated 2013).

Structures can show the parent of a compound that is named as a salt.

In general, IC50 refers to the concentration at which inhibition is half-maximal.

One assay has as its target T1, RET (Homo sapiens, UniProt P07949).
T1 construct: purchased Upstate 14-570MG
The assay is described as follows: Inhibition of RET kinase activity, recombinant RET method (Kinase-Glo). Format: biochemical. Conditions: RET 2 μg/ml, poly-EY4 substrate, 20 μM ATP, two hours at 30° C. In a few lines: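 Recombinant RET at 2 μg/ml in 20 mM MOPS/NaOH pH 7.0, 1 mM EDTA, 5% glycerol, 0.01% Brij35, 0.1% 2-mercaptoethanol, 1 mg/ml BSA; compounds 10 nM–30 μM final.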

A further assay deals with T2, PIM-1 (Homo sapiens, UniProt P11309).
T2 construct: purchased Upstate 14-573
The experiment in a line: Inhibition of kinase PIM-1 (Kinase-Glo). Format: biochemical. To be noted: PIM-1 0.625 μg/ml, 10 μM ATP, forty minutes at 30° C. As to the method: Protein PIM-1 (Upstate #14-573 batch 25864U) is incubated at a concentration of 0.625 μg/ml in a buffer containing 8 mM of MOPS/NaOH pH7, 0.2 mM EDTA, 5 mM MgAc (Sigma #229768), 0.01% Triton Tx100, in the presence of 70 μM of peptide substrate S6 Kinase/Rsk2 (Upstate #12-243), and 10 μM of ATP.
The dilution buffer for PIM-1 is as follows: 20 mM MOPS/NaOH pH7, 1 mM EDTA, 5% glycerol, 0.01% Brij35, 0.1% 2-mercapto, 1 mg/ml BSA
The compound to be tested is first added to the enzyme to give a reaction volume of 50 μl. The dilution of the compounds of the invention is distributed so as to obtain a scale of final concentrations between 10 nM and 30 μM.
After incubation of the reaction mixture for forty minutes at 30° C., the level of ATP that remains is assayed using the Kinase-Glo Luminescent Kinase Assay (Promega #V6712) according to the conditions recommended by the supplier. The luminescence induced is read in a plate reader (Envision-Perkin Elmer).
On the technique in general: Kinase-Glo measures the ATP left after a reaction by luminescence.

T2 sequence (P11309 whole entry): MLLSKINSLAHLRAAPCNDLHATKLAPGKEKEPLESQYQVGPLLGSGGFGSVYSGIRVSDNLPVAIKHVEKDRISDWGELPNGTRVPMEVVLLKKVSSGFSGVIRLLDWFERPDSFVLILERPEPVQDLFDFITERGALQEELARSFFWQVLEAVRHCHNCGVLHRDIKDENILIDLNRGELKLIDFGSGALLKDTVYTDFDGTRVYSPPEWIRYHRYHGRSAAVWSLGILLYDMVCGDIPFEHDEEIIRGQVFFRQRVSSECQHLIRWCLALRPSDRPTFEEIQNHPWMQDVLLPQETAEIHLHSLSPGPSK
T1 sequence (P07949 29-1114): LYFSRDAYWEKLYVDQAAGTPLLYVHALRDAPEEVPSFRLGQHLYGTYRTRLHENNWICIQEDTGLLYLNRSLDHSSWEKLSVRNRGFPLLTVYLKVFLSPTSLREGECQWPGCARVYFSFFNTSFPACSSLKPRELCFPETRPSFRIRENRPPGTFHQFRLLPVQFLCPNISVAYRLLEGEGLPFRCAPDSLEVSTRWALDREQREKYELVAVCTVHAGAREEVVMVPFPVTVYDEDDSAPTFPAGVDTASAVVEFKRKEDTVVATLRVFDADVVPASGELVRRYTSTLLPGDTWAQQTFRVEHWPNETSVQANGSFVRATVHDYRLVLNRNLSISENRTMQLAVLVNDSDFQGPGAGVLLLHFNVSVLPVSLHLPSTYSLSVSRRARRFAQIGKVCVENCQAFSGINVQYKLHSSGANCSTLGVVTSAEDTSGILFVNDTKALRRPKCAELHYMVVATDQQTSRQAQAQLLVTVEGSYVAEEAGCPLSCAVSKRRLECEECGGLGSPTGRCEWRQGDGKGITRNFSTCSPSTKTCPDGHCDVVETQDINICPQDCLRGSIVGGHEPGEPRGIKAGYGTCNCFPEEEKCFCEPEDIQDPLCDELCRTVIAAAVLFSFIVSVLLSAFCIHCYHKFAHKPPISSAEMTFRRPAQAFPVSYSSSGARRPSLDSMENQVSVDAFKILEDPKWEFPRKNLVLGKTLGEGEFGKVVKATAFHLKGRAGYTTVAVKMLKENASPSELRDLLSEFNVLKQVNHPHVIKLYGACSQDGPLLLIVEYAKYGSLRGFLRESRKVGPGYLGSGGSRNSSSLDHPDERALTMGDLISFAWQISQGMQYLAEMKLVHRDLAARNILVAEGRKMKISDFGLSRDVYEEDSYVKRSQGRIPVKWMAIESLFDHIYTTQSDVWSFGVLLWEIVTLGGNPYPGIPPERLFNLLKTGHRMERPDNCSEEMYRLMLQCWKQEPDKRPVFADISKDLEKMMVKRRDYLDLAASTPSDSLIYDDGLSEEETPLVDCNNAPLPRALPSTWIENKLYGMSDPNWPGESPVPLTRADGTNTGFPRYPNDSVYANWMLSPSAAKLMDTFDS

Turning to `CCOC(=O)c1c[nH]c2c(=O)[nH]c3ccc(S(=O)(=O)N(C)c4cccc(Cl)c4)cc3c12` [Compound 34, 8-[(3-Chlorophenyl)-methyl-sulfamoyl)-4-oxo-4,5-dihydro-3H-pyrrolo[2,3-c]quinoline-1-ethyl carboxylate], the results for the IC50 on RET and at PIM-1 were 0.1 to 1 µM and 1 to 10 µM, respectively.
Regarding `CCOC(=O)c1c[nH]c2c(=O)[nH]c3ccc(NC)cc3c12` [Compound 63, 8-Methylamino-4-oxo-4,5-dihydro-3H-pyrrolo[2,3-c]quinoline-1-ethyl carboxylate hydrochloride], the half-maximal inhibitory concentration (IC50) at RET is 1 to 10 µM; against PIM-1, 10 to 100 µM.
For `CCOC(=O)c1c[nH]c2c(=O)[nH]c3ccc(N)cc3c12` [Compound 64, 8-Amino-4-oxo-4,5-dihydro-3H-pyrrolo[2,3-c]quinoline-1-ethyl carboxylate], in that order: 1 to 10 µM and 10 to 100 µM.
For the compound `CCOC(=O)c1c[nH]c2c(=O)[nH]c3ccc([N+](=O)[O-])cc3c12` [Compound 66, 8-Nitro-4-oxo-4,5-dihydro-3H-pyrrolo[2,3-c]quinoline-1-ethyl carboxy late], the IC50 on RET and at PIM-1 was 1 to 10 µM each time.
As to `CCOC(=O)c1c[nH]c2c(=O)[nH]c3ccc(/C=C/c4ccccc4)cc3c12` [Compound 70, 4-Oxo-8-styryl-4,5-dihydro-3H-pyrrolo[2,3-c]quinoline-1-ethyl carboxylate], the IC50 at RET and against PIM-1 was 1 to 10 µM each time.
Regarding `CCOC(=O)c1c[nH]c2c(=O)[nH]c3ccc(Br)cc3c12` [Compound 71, 8-Bromo-4-oxo-4,5-dihydro-3H-pyrrolo[2,3-c]quinoline-1-ethyl carboxylate], the half-maximal inhibitory concentration (IC50) was in the range of 0.1 to 1 µM on RET and 1 to 10 µM against PIM-1.
With `CCOC(=O)c1c[nH]c2c(=O)[nH]c3ccc(-c4ccc5c(ccn5C(=O)OC(C)(C)C)c4)cc3c12` [Compound 253, 8-(1-tert-Butoxycarbonyl-1H-indol-5-yl)-4-oxo-4,5-dihydro-3H-pyrrolo[2,3-c]quinoline-1-ethyl carboxylate], at RET, the IC50 lay within 1 to 10 µM.
Take `CCCOC(=O)c1c[nH]c2c(=O)[nH]c3ccc(-c4cccc(S(C)(=O)=O)c4)cc3c12` [Compound 254, 8-(3-Methanesulfonyl-phenyl)-4-oxo-4,5-dihydro-3H-pyrrolo[2,3-c]quinoline-1-propyl carboxylate]: the IC50 on RET was in the range of 0.1 to 1 µM.
In the case of `CC(C)COC(=O)c1c[nH]c2c(=O)[nH]c3ccc(-c4cccc(S(C)(=O)=O)c4)cc3c12` [Compound 255, 8-(3-Methanesulfonyl-phenyl)-4-oxo-4,5-dihydro-3H-pyrrolo[2,3-c]quinoline-1-isobutyl carboxylate], the IC50 on RET was 1 to 10 µM.
`CS(=O)(=O)c1cccc(-c2ccc3[nH]c(=O)c4[nH]cc(C(=O)OC5CCCC5)c4c3c2)c1` [Compound 256, 8-(3-Methanesulfonyl-phenyl)-4-oxo-4,5-dihydro-3H-pyrrolo[2,3-c]quinoline-1-cyclopentyl carboxylate]: the IC50 on RET fell in the range of 0.1 to 1 µM.
Still for that read-out and setting: with `CCOC(=O)c1c[nH]c2c(=O)[nH]c3cc(Cl)c(-c4cccc(S(C)(=O)=O)c4)cc3c12` [Compound 257, 7-Chloro-8-(3-methanesulfonyl-phenyl)-4-oxo-4,5-dihydro-3H-pyrrolo[2,3-c]quinoline-1-ethyl carboxylate] the figure was 0.1 to 1 µM; with `CCOC(=O)c1c[nH]c2c(=O)[nH]c3ccc(-c4cccnc4)cc3c12` [Compound 258, 4-Oxo-8-pyridin-3-yl-4,5-dihydro-3H-pyrrolo[2,3-c]quinoline-1-ethyl carboxylate], 1 to 10 µM.
The same measure, in the same setting: the same measure for `CCOC(=O)c1c[nH]c2c(=O)[nH]c3ccc(-c4ccc(OC)nc4)cc3c12` [Compound 260, 8-(6-Methoxy-pyridin-3-yl)-4-oxo-4,5-dihydro-3H-pyrrolo[2,3-c]quinoline-1-ethyl carboxylate]: 1 to 10 µM; for `CCOC(=O)c1c[nH]c2c(=O)[nH]c3ccc(-c4ccnc(N5CCN(c6ccccn6)CC5)n4)cc3c12` [Compound 265, 4-Oxo-8-[2-(4-pyridin-2-yl-piperazin-1-yl)-pyrimidin-4-yl]-4,5-dihydro-3H-pyrrolo[2,3-c]quinoline-1-ethyl carboxylate]: 1 to 10 µM.
On to `CCOC(=O)c1c[nH]c2c(=O)[nH]c3ccc(-c4csc(Nc5ccccc5Cl)n4)cc3c12` [Compound 272, 8-[2-(2-Chlorophenylamino)-thiazol-4-yl]-4-oxo-4,5-dihydro-3H-pyrrolo[2,3-c]quinoline-1-ethyl carboxylate], for which, on RET, the half-inhibitory concentration (IC50) was in the range of 1 to 10 µM.
`CCOC(=O)c1c[nH]c2c(=O)[nH]c3ccc(-c4csc(Nc5ccc(Cl)c(Cl)c5)n4)cc3c12` [Compound 273, 8-[2-(3,4-Dichlorophenylamino)-thiazol-4-yl]-4-oxo-4,5-dihydro-3H-pyrrolo[2,3-c]quinoline-1-ethyl carboxylate]: the IC50 at RET was in the range of 1 to 10 µM.
`CCOC(=O)c1c[nH]c2c(=O)[nH]c3ccc(-c4csc(Nc5c(Cl)cccc5Cl)n4)cc3c12` [Compound 274, 8-[2-(2,6-Dichlorophenylamino)-thiazol-4-yl]-4-oxo-4,5-dihydro-3H-pyrrolo[2,3-c]quinoline-1-ethyl carboxylate]: on RET, the IC50 was in the range of 10 to 100 µM.
Same read-out and setting: with `CCOC(=O)c1c[nH]c2c(=O)[nH]c3ccc(-c4csc(NC(=O)C5CC5)n4)cc3c12` [Compound 275, 8-[2-(Cyclopropanecarbonyl-amino)-thiazol-4-yl]-4-oxo-4,5-dihydro-3H-pyrrolo[2,3-c]quinoline-1-ethyl carboxylate] the figure was 0.1 to 1 µM.
On to `CCOC(=O)c1c[nH]c2c(=O)[nH]c3ccc(-c4csc(CSc5ccccc5)n4)cc3c12` [Compound 276, 4-Oxo-8-(2-phenylsulfanylmethyl-thiazol-4-yl)-4,5-dihydro-3H-pyrrolo[2,3-c]quinoline-1-ethyl carboxylate], for which, on RET, the IC50 fell in the range of 0.1 to 1 µM.
Consider `CCOC(=O)c1c[nH]c2c(=O)[nH]c3ccc(-c4csc(C)n4)cc3c12` [Compound 278, 8-(2-Methyl-thiazol-4-yl)-4-oxo-4,5-dihydro-3H-pyrrolo[2,3-c]quinoline-1-ethyl carboxylate], for which the IC50 on RET was in the range of 1 to 10 µM.
For `CCOC(=O)c1c[nH]c2c(=O)[nH]c3ccc(-c4csc(-c5ccccc5)n4)cc3c12` [Compound 279, 4-Oxo-8-(2-phenyl-thiazol-4-yl)-4,5-dihydro-3H-pyrrolo[2,3-c]quinoline-1-ethyl carboxylate], at RET, the IC50 was in the range of 1 to 10 µM.
For `CCOC(=O)c1c[nH]c2c(=O)[nH]c3ccc(-c4csc(NNc5ccccc5)n4)cc3c12` [Compound 280, 4-Oxo-8-[2-(N′-phenyl-hydrazino)-thiazol-4-yl]-4,5-dihydro-3H-pyrrolo[2,3-c]quinoline-1-ethyl carboxylate], on RET, the IC50 was in the range of 1 to 10 µM.
For `CCOC(=O)c1c[nH]c2c(=O)[nH]c3ccc(-c4ccno4)cc3c12` [Compound 281, 8-Isoxazol-5-yl-4-oxo-4,5-dihydro-3H-pyrrolo[2,3-c]quinoline-1-ethyl carboxylate], the IC50 on RET is 0.1 to 1 µM.
On to `CCOC(=O)c1c[nH]c2c(=O)[nH]c3ccc(-c4ccn(C)n4)cc3c12` [Compound 283, 8-(1-Methyl-1H-pyrazol-3-yl)-4-oxo-4,5-dihydro-3H-pyrrolo[2,3-c]quinoline-1-ethyl carboxylate], for which, at RET, the IC50 fell in the range of 0.1 to 1 µM.
